Values of other authors, collected in patent US20240050514A1, “USE OF COMPOUND, PHARMACEUTICAL COMPOSITION FOR THE TREATMENT OF IMMUNE OR METABOLIC DISORDERS, PHARMACEUTICAL COMPOSITION FOR THE TREATMENT OF ILLNESSES CAUSED BY OR ASSOCIATED WITH VIRUSES” (PROTEIMAX BIOTECNOLOGIA LTDA., priority 2021, published 2024).

What was measured:
ACE = ACE (Homo sapiens, UniProt P12821); details: read-out: inhibition constant Ki
[1] = in vivo

ACE, sequence (P12821 30-1306, species assumed): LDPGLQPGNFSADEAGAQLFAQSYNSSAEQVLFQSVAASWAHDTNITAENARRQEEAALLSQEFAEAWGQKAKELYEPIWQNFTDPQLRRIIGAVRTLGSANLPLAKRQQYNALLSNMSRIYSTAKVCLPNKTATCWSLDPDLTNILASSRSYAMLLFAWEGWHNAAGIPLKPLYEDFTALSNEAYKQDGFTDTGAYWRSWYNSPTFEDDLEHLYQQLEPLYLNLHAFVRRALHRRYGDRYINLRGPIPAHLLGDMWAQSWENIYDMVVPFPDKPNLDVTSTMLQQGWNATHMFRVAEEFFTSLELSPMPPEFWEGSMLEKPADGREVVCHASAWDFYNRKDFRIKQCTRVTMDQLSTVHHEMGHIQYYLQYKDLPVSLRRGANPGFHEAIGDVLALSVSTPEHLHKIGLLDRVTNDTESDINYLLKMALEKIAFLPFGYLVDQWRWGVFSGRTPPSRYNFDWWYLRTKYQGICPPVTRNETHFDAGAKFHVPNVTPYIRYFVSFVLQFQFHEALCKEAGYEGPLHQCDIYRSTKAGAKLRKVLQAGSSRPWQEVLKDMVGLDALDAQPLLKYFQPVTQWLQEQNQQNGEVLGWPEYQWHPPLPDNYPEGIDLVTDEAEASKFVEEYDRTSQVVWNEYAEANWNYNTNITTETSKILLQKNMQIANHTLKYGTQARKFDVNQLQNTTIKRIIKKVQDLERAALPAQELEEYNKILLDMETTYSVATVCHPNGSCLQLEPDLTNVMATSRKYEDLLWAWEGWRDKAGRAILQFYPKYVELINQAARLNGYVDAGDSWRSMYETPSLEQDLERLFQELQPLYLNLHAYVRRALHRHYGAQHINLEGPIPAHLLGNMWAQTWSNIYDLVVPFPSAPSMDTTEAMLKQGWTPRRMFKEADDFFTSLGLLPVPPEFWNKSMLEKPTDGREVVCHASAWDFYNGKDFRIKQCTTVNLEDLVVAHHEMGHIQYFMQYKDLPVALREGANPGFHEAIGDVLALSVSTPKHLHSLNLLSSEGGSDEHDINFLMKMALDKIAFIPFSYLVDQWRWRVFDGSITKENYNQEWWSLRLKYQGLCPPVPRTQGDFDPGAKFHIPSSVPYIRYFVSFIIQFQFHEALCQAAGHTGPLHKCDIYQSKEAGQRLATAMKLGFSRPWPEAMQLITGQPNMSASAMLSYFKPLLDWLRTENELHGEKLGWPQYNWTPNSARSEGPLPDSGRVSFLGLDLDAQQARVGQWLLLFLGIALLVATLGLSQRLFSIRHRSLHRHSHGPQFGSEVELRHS

CC(C)C[C@H](NC(=O)[C@H](Cc1ccccc1)NC(=O)[C@H](CCCCN)NC(=O)[C@H](Cc1ccccc1)NC(=O)[C@H](CC(N)=O)NC(=O)[C@@H](NC(=O)[C@@H]1CCCN1)C(C)C)C(=O)N[C@@H](CO)C(=O)N[C@@H](Cc1cnc[nH]1)C(=O)O [hemopressin, PVNFKFLSH]
Ki (ACE): 1.87 mM
basal levels of monoamine in the prefrontal cortex (rats): reduction in the basal levels of monoamine in the prefrontal cortex
behavior after administration (rats): induced anxiogenic and depressive behavior
crossing of the blood-brain barrier [1]: does not cross the blood-brain barrier
